{
  "source": "paper PMC6934184",
  "about": "“Selective DNA-PKcs inhibition extends the therapeutic index of localized radiotherapy and chemotherapy” (The Journal of Clinical Investigation, 2019)",
  "target": "T1, TYK2 (Homo sapiens, UniProt P29597)",
  "T1 construct": "purchased Thermo Fisher Scientific (Life Technologies) SelectScreen",
  "T1 sequence (P29597 whole entry)": "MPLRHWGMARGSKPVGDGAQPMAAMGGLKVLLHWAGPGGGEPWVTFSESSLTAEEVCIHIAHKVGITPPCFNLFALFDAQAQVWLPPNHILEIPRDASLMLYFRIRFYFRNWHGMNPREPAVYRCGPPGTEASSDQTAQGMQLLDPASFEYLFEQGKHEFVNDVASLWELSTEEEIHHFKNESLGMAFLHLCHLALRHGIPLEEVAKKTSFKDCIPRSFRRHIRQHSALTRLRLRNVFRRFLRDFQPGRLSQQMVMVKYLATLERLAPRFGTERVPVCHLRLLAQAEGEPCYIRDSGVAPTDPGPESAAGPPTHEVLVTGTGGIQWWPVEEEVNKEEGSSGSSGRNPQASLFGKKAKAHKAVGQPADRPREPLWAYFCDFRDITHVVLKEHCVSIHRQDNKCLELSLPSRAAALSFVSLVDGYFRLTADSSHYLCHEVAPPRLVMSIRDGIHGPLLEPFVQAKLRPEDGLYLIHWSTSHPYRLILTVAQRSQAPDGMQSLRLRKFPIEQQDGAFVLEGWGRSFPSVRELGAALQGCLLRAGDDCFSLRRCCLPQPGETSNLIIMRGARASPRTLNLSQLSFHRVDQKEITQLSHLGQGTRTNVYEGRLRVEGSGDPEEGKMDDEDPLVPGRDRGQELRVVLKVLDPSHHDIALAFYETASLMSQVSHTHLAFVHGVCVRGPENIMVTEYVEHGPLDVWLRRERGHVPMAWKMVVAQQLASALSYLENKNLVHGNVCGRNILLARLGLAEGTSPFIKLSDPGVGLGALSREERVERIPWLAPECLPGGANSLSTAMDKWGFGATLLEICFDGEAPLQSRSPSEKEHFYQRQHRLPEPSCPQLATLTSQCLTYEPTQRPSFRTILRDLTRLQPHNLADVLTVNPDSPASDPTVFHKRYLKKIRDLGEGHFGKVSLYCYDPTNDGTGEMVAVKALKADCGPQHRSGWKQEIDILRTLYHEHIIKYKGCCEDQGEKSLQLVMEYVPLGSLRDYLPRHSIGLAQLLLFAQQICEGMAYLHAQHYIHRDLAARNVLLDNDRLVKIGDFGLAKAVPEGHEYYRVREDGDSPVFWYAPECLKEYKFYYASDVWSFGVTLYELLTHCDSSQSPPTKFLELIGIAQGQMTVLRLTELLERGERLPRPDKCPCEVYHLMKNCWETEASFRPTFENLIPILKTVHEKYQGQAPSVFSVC",
  "assay": "SelectScreen Z'LYTE",
  "format": "biochemical",
  "summary_of_the_method": "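Compound tested in SelectScreen activity assays, Z'LYTE for CSF1R, CDK1/cyclin B and MAP2K6 and Adapta for CAMK1. ATP for CAMK1 was listed as 10, and Km app was used for CSF1R. Results are expressed in percent.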",
  "data": [
    {"smiles": "CN(C(=O)CN1CCOCC1)c1ccc2sc3c(-c4cccc5c(=O)cc(N6CC7CCC(C6)O7)oc45)cccc3c2c1", "note": "[NU5455]", "values": [
      {"measurement": "inhibition at 1 µM", "value": 4.2, "unit": "%"}
    ]}
  ]
}
